Data published in patent publication US7303752B2, “Hookworm vaccine” (The George Washington University, priority 2001, dated 2007).
Several values for one entry are separate records, joined by “and”; a condition that tells them apart may be missing. Equal entries are not always repeated.

Experiments:
Assay type in all cases: in vivo, dog
[1] = test system: antibody to recombinant proteins; assay: Pre-challenge antibody titer ELISA, trial with Ac-ASP-2, Ac-API, Ac-MEP-1, Ac-APR-1 in AS03
Method: (§1) The vaccine trial was designed to test Ac-API, Ac-ASP-2, Ac-MEP-1, Ac-APR-1 formulated with Adjuvant System 03 (AS03) obtained from GlaxoSmithKline (GSK). The rationale for selecting AS03 as an adjuvants is discussed elsewhere (Stoute et al, 1997). The ten purpose bred beagles were randomized into five arms: immunized with the adjuvant-formulated recombinant proteins or adjuvant only (control). To make six doses of antigen formulated with AS03, […] of recombinant protein (0.3 ml of antigen at a concentration of 2 mg.ml^−1) was mixed with 1.2 ml of 20 mM Tris-HCl, 0.5 M NaCl, pH 7.9 and 1.5 ml of AS03; the contents of the tube were vortex mixed for 30 seconds then shaken at low speed for 10 minutes. Dogs were immunized with 100 g of formulated antigen in a final volume of 0.5 ml. ASO3 only control was prepared as described above, with PBS included instead of antigen. Formulation of GSK adjuvants were conducted according to the protocol provided by GSK. All injections were performed intramuscularly (IM). Test and control articles were prepared on the day of injection. All animals received 4 immunizations approximately 3 weeks apart.
Beagles were immunized with formulated Ac-ASP-2 as previously described (Loukas et al, 2004). The vaccines were administered IM three times beginning at age 62+/−4 days. Boosts were administered to the dogs at intervals of 21 days. Blood was drawn at least once every 21 days and serum was separated from cells by centrifugation. Each animal's specific antibody response was evaluated by indirect ELISA using serum taken prior to the infective challenge (Loukas et al, 2004). Recombinant Ac-ASP-2 was coated onto microtiter plates at a concentration of 5 g.ml^−1. Dog sera were titrated between 1:100 and 1:2×10^6 to determine endpoint titers. Anti-canine IgG1, IgG2 and IgE antibodies conjugated to horse-radish peroxidase (Bethyl Laboratories) were used at a dilution of 1:1,000.

[2] = test system: A. caninum; assay: Canine vaccine trial with Ac-ASP-2, Ac-API, Ac-MEP-1, Ac-APR-1 in AS03, footpad challenge with 500 A. caninum L3
Method: as §1, with “The ten purpose bred beagles were randomized into five arms: immunized with the adjuvant-formulated recombinant proteins or adjuvant only (control).” left out
A. caninum larvae were cultured from eggs collected in the feces of infected dogs. All hookworms in the infective challenge were approximately equal age (17±7 days post hatching). The species identity of the infective larvae were validated using PCR. All dogs were infected by the footpad method with the same dose of 500 L3 of A. caninum (Zhan et al, 2001). Larval challenge occurred on one of three consecutive days (at age 120+/−9 days). Fourteen-sixteen days after the final immunization, dogs were anesthetized using a combination of ketamine and xylazine (20 mg.kg^−1 and 10 mg.kg^−1 respectively), and 500 A. caninum L3 in a final volume of […] were applied to the footpad.

[3] = test system: A. caninum; assay: Canine vaccine trial with Ac-TMP, Ac-AP, Ac-APR-1, oral challenge with 400 A. caninum L3; settings: for % Decrease of adult hookworms in the small intestines relative to alum-injected dogs / % Increase of adult hookworms in the colons relative to alum-injected dogs: group; for adult A. caninum hookworms in the colons, Median / adult hookworms in the small intestines, Median: group median; for adult A. caninum hookworms in the colons, Median: alum control 4; for adult hookworms in the small intestines, Median: alum control 180; for ratio of adult hookworms in the small intestine relative to the colon: vaccinated group, alum-injected dogs 43.9
From the text: Study dogs and animal husbandry: Following protocol approval by The George Washington University Institutional Animal Care and Use Committee (IACUC), purpose bred, parasite naïve, male beagles 8±1 week of age were purchased, identified by ear tattoo, and maintained in the AALAC (Association for Assessment and Accreditation of Laboratory Animal Care) accredited George Washington University Animal Research Facility. The dogs were housed in a room dedicated for the study, at a room temperature of 70±4° F., with 10-15 air changes per hour comprised of 100 percent fresh air, and 12 hr light cycles alternating with 12 hr dark cycles. The airflow and timer functions were monitored daily. The dogs were fed on a diet of Teklad Certified Dog Chow #8727, supplemented with a canned soft diet in the event of anorexia. The drinking water was piped from a filter plant and delivered via automatc water system; water analysis was performed by the U.S. Army Corps of Engineers. Water from the facilities automatic system is cultured for bacteria and fungi annually. The pens were flushed daily and sanitized every two weeks. Dogs within a given study group were permitted to live together and socialize prior to the hookworm larval challenge, but were caged individually post-infection. All dogs were quarantined for approximately one week before beginning the vaccine trial. Prior to vaccination a complete blood count (CBC), serum chemistries, and a pre-vaccination serum sample were obtained.
Vaccine study design and sample size: The vaccine trial was designed to test three different antigens, each formulated with alum, as well as an alum adjuvant control. A total of 24 dogs were randomly assigned into four groups comprised of 6 dogs each. The canine sample size was selected on the ability to detect a 40-50 percent reduction in the numbers of adult hookworms in the small intestines of the vaccinated group relative to control dogs, at a statistical power of 80 percent (alpha=0.05, two-tailed). The data were derived from the mean and standard deviation of adult hookworms previously recovered from age-matched dogs infected with 400 A. caninum L3 (Hotez et al, 2002).
Recombinant Antigens: Each group of 6 dogs was vaccinated with recombinant hookworm proteins expressed as fusion proteins either in Escherichia coli or in an insect cell line with baculovirus. Ac-AP (Cappello et al, 1995; 1996) and Ac-TMP, were expressed in E. coli as pET 28 (Novagen) fusion proteins containing a polyhistidine tag (Cappello et al, 1996). Ac-APR-1 (Harrop et al, 1996) was expressed in a baculovirus pBacPAK6 vector (Clontech), modified to contain a polyhistidine-encoding sequence and additional restriction enzyme sites (Brindley et al, 2001). Recombinant Ac-AP and Ac-TMP fusion proteins were then purified by nickel affinity chromatography, followed by a second step of purification. In the case of Ac-AP (Cappello et al, 1995; 1996), the recombinant protein was purified by mono-S (Amersham-Pharmacia) ion exchange chromatography, while Ac-TMP (Zhan et al, 2002) was purified by superdex 75 (Amersham-Pharmacia) gel filtration chromatography. Ac-APR-1 (Harrop et al, 1996) was purified by substrate affinity chromatography using pepstatin agarose (Brindley et al, 2001). The antigen stock protein concentration was determined by Pierce Micro BCA assay (Pierce Chemicals) or by the absorbance of the sample at […] using an extinction coefficient that was calculated from the deduced amino acid composition of the fusion protein. The amount of alum adsorbed protein in each dose of antigen was measured by the Pierce Micro BCA assay using a bovine serum albumin standard. The relative purity of each of the antigens relative to contaminating E. coli or insect cell proteins was determined by analysis on sodium dodecyl sulfate polyacrylamide gel electrophoresis (SDS-PAGE). […]

Ac-APR-1: A. caninum aspartic protease (cathepsin), SEQ ID NO: 50; baculovirus expressed
antibody response, in words ([1]; AS03): only a single dog developed a substantial antibody titer
Pre-challenge antibody titer, IgG1, GEOMEAN ([1]; geometric mean of group): 100
Pre-challenge antibody titer, IgG2, GEOMEAN ([1]; geometric mean of group): 562
Pre-challenge antibody titer, IgG1 ([1]; individual dogs): 100
Pre-challenge antibody titer, IgG2 ([1]; individual dogs): 500 (3×) and 4,500 and 100
worm burdens, Maximum ([2]; 5 dogs): 250.00
worm burdens, Minimum ([2]; 5 dogs): 119.00
worm burdens, Mean ([2]; 5 dogs, ASO3 control 203.8000): 177.0000
worm burdens, Median ([2]; 5 dogs, ASO3 control 215.0000): 168.0000
worm burden reduction in a single dog ([2]; dog A3 (ASP-2 group), dog D2 (APR-1 group), versus control mean): 42%
worm burden, Colon, Male, Average ([2]; group average, AS03 control 5): 4
worm burden, Colon, Female, Average ([2]; group average, AS03 control 9): 6
worm burden, Intestine, Female, Average ([2]; group average, AS03 control 95): 79
worm burden, Intestine, Male, Average ([2]; group average, AS03 control 96): 83
worm burden, Total, Average ([2]; group average, AS03 control 204): 177
worm burden, Colon, Female ([2]; individual dogs): 1 and 18 and 3 and 8 and 0
worm burden, Colon, Male ([2]; individual dogs): 0 (2×) and 11 and 3 and 5
worm burden, Intestine, Female ([2]; individual dogs): 76 and 41 and 69 and 87 and 122
worm burden, Intestine, Male ([2]; individual dogs): 65 and 47 and 131 and 124 and 49
worm burden, Total ([2]; individual dogs): 168 and 119 and 146 and 202 and 250
fecal eggs (fecundity), in words ([2]; relative to the control group): significant reduction in fecal eggs
% Decrease of adult hookworms in the small intestines relative to alum-injected dogs [3]: 18%
% Increase of adult hookworms in the colons relative to alum-injected dogs [3]: 300%
adult A. caninum hookworms in the colons, Median [3]: 27
adult hookworms in the small intestines, Median [3]: 138
ratio of adult hookworms in the small intestine relative to the colon [3]: 7.3

B1: Ac-TMP: A. caninum putative tissue inhibitor of metalloproteinase, SEQ ID NO: 12; E. coli fusion protein (protein, listed as Ancylostoma caninum)
chain: MRVAIVFIACFAVAHACKCEKKPRPPLEKLLCQSQFVTHAKVTKKRIDGYFIYYDLEHKEVYKPKDRSIPIELFSWREKENCGMPDLEEGKEYLIGGKVTDYGDGDLVISVSRCDLLRNWTDVSGEEKKLLGTFKCENQS
modifications: E. coli fusion partner
notes: E. coli fusion protein
% Decrease of adult hookworms in the small intestines relative to alum-injected dogs [3]: 10.8%
% Increase of adult hookworms in the colons relative to alum-injected dogs [3]: 500%
adult A. caninum hookworms in the colons, Median [3]: 32
adult hookworms in the small intestines, Median [3]: 161
ratio of adult hookworms in the small intestine relative to the colon [3]: 6.6
